Reference: US20260335272A1, “SAGERINIC ACID AND COMPOSITIONS CONTAINING SAME, FOR USE IN THE PREVENTION AND/OR TREATMENT OF SENESCENCE-RELATED DISORDERS IN A HUMAN OR ANIMAL” (A2P SCIENCES, priority 2022, published 2026)

Key:
[1] = DPPH free radical elimination (anti-radical / oxidative stress effect); type: physicochemical; conditions: for Activity (elimination of DPPH free radical): antioxidant solution 0.0007% (ascorbic acid in ethyl alcohol, sagerinic acid in water), 0.15 ml in 4.5 ml, phosphate buffer pH 7, 5 min, OD at 519 nm
Experimental: The principle of the method for assessing the effect of sagerinic acid compared to ascorbic acid as a reference molecule is based on the elimination of a stable free radical, the 2,2-Diphenyl-1-picrylhydrazyl (DPPH Sigma Aldrich ref D9132).
Dissolve 0.177 g monopotassium phosphate and 0.730 g dibasic sodium phosphate dihydrate in 50 ml purified water. The pH is adjusted if necessary.
A solution of exactly 0.0027% (w/V) DPPH in methanol is made.
A solution of exactly 0.1% (w/V) ascorbic acid (Riedel-de-Haen, ref.33034) is made in ethyl alcohol. This solution is diluted to 0.0007% (V/V) in ethyl alcohol.
A solution of exactly 0.1% (w/V) sagerinic acid (prepared according to example 5.1.) is made in water. This solution is diluted to 0.0007% (V/V) in water.
(§1) A series of hermetically sealed pillboxes are filled with:
For the sample and the blank: • After addition, stir for 5 min on a magnetic stirrer • Add 4 ml toluene • Stir for 30 seconds with a magnetic stirrer • Allow to settle for 20 seconds to 1 minute (if necessary) • Recover the organic phase from the top using an automatic pipette, taking care not to recover any aqueous phase • Read the OD of the organic phase using a spectrophotometer at 519 nm

SIRT1 = target: T1, SIRT1 (Homo sapiens, UniProt Q96EB6); experiment: SIRT1 Inhibitor/Activator screening kit (ab283377), fluorimetric sirtuin-1 activation; type: biochemical; conditions: for Activity (activation of sirtuin-1): 2.28% (w/V) activator in DMSO diluted 1:250 in DTT buffer, 25 μl, 37 °C, 30-60 min, Ex/Em=400/505 nm
T1 construct: fluorogenic deacetylation assay
T1 sequence (Q96EB6 1-747): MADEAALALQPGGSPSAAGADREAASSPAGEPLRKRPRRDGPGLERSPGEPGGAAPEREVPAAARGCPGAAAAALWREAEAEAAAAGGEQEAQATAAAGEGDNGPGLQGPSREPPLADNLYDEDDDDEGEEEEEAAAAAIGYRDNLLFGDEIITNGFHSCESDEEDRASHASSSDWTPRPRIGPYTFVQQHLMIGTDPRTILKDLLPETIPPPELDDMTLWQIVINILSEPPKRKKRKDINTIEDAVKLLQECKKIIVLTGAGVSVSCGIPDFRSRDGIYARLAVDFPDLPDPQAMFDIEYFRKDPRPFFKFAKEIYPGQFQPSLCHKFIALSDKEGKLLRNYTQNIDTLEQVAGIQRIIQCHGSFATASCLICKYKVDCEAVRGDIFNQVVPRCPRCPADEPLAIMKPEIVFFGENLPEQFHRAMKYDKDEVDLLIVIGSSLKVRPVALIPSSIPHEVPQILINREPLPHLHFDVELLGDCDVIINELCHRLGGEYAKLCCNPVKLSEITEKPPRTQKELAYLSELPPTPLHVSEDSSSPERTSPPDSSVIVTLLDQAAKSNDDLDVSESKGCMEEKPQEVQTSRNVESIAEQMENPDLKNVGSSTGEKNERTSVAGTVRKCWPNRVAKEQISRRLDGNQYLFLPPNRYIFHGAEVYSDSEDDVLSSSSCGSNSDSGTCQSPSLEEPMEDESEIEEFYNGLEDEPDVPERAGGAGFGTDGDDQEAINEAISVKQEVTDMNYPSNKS
From the text: The SIRT1 Inhibitor/Activator screening kit deacetylates the substrate with SIRT1, followed by cleavage of the deacetylated substrate to release the fluorescent group, which is detected by fluorimetry at Ex/Em=400/505 nm.
The SIRT1 activator enhances the SIRT1 activity resulting in a higher fluorescent signal compared to the control. This kit provides a rapid, simple, sensitive and reliable test, suitable for high-throughput screening of SIRT1 activators.
• Solutions of the kit: Reference ab283377 (Abeam) • Buffer • Substrate • SIRT1 • NAD • DTT • DMSO Réference 34869 (Honeywell Riedel-de-Haen)
A solution of exactly 2.28% (w/V) activator (resveratrol (Sigma Aldrich, ref.R5010) and sagerinic acid prepared according to example 5.1.) is made in DMSO. Dilute to 1:250 in the DTT buffer solution.
Preparation of the enzyme solution: Make the following additions to 3 separate wells:
• 1. To the SIRT1 enzyme solution wells, add: • 25 μl of undiluted activator solution (2.28% solution) in a well as activator control (AC) • 25 μl of DTT-free buffer in a well as an enzyme control (EC) • 25 μl of diluted activator solution as assay (S) • 2. In another well, add 50 μl of DTT-free buffer as a blank control (without enzyme). • 3. Mix well and incubate the plaque for 5 minutes at 37 °C
Preparation of the substrate: After incubation, make the following additions to each well:
Mix and incubate at 37 °C for 30-60 min.
Mix well and incubate for 10 min at 37 °C, protected from light.
Read the fluorescence (Ex/Em=400/505 nm).
The activation of sirtuin-1 by sagerinic acid was compared with that of resveratrol as a reference molecule.

[2] = Protein deglycating activity: release of benzoic acid from 1-phenyl-1,2-propanedione (PPD), HPLC; conditions: for Activity (protein deglycating activity): 0.25% (w/V) product, 0.375% (w/V) PPD, 37 °C, 24 hours, phosphate buffer pH 7.4-methanol 50/50, benzoic acid by HPLC at 229 nm
Experimental: The test products in 0.25% (w/V) solution are left in contact with a 0.375% (w/V) solution of 1-phenyl-1,2-propanedione (PPD) for 24 hours at 37 °C. An HPLC dosing, at 229 nm after passage through an Ascentis® Express C18 column, was carried out at TO and again after 24 hours so as to determine the benzoic acid content. Calculating the percentage of pmol of benzoic acid/μmol of PPD in the reaction medium determines the activity of the deglycants.
Dissolve 0.178 g monopotassium phosphate and 0.955 g dibasic sodium phosphate dihydrate in 100 ml purified water. The pH is adjusted if necessary.
A mixture is made with 50 ml phosphate buffer pH 7.4 and 50 ml methanol.
A solution of exactly 0.375% (w/V) PPD is made in the mixture buffer phosphate pH 7.4—methanol (50/50).
A solution of approximately 0.25% (w/V) of the product to be tested is made in the mixture buffer phosphate pH 7.4—methanol (50/50).
Product to be tested: Alagebrium chloride (MedChem Express, ref. HY-106024B), Sagerinic acid (prepared according to example 5.1.).
A stock solution of approximately 0.08% (w/V) benzoic acid is made in ethyl alcohol. This solution is diluted 1:10 (V/V) in purified water (D).
(D) is then diluted 1:5, 2:5, 3:5 and 4:5 (V/V) in purified water. (D1, D2, D3 and D4).
A linear calibration line was established: area of the benzoic acid peak, with a retention time of 9.17 min and observed at 229 nm, as a function of the concentration in % (w/V).
as §1
Stir after each addition.
0.05 ml is taken from each pillbox to measure the benzoic acid content at TO. The pillboxes are resealed and placed in an oven at 37 °C for a minimum of 21 to a maximum of 24 hours.
The same volume will be taken for dosing on leaving the oven.
The time at 37 °C must be exactly the same for the control and all the tests, so they are prepared as they go along.
The 0.05 ml samples are diluted 1:5 (V/V) in purified water, i.e. by adding 0.2 ml. […]
The % of pmol of benzoic acid/μmol of PPD in the reaction medium is calculated: • TT0×10000×100/122.12×12.655 […]

Collagenase = Collagenase activity kit (Sigma Aldrich MAK293, FALGPA substrate), anti-collagenase activity; type: biochemical; conditions: vs reference molecule hamamelitannin
Experimental: A collagenase activity analysis kit (Sigma Aldrich MAK293) is used. The kit allows to screen collagenase inhibitors by measuring collagenase activity using a synthetic peptide (FALGPA) that mimics the structure of the collagen.
• Solutions of the kit: Reference MAK293-1KT (Sigma Aldrich) • Collagenase buffer (MAK293A-KC) • Collagenase solution (MAK293B-KC) • Collagenase substrate (MAK293C-KC) • Pharmethyl 96° ethyl alcohol, Reference 11371014 (Cristalco) • Purified water
A solution is made of exactly 1% (w/V) hamamelitannin (Extrasynthesis ref. 0958) in ethyl alcohol.
A solution of exactly 1% (w/V) sagerinic acid (prepared according to example 5.1.) is made in purified water.
as §1
• After addition, stir quickly by hand • Place in an oven at 37 °C for 30 minutes • Add 1.6 mL of purified water. Mix well. • Read the DO: Sample against blank, spectrophotometer at 345 nm.
The anti-collagenase activity of sagerinic acid was compared with that of hamamelitannin as a reference molecule.
In absolute values: Y=[(DOBlank 2−DOTest)−(DOBlank 1−DOcontrol)]/(DOBlank 1−DOcontrol)]×100

Row | SMILES | Activity (elimination of DPPH free radical) [1] | Activity (activation of sirtuin-1) (SIRT1) | Activity (protein deglycating activity) [2] | effect in eliminating free radicals relative to ascorbic acid ([1]; vs ascorbic acid) | protein deglycating activity (in words) [2] | effect on sirtuin activation (in words) (SIRT1) | inhibitory effect on proteases (collagenases) relative to hamamelitannin (Collagenase)
1 | O=C1O[C@H]([C@@H](O)CO)C(O)=C1O [Ascorbic acid, ascorbic acid, reference compound] | 5.26 arbitrary dimensionless unit | – | – | – | – | – | –
2 | Oc1ccc(C=Cc2cc(O)cc(O)c2)cc1 [Resveratrol, resveratrol, reference compound] | – | 80.54 arbitrary dimensionless unit | – | – | – | – | –
3 | Cc1sc[n+](CC(=O)c2ccccc2)c1C [Alagebrium, reference compound] | – | – | 28.79 arbitrary dimensionless unit | – | – | – | –
4 | O=C(O[C@H](Cc1ccc(O)c(O)c1)C(=O)O)C1C(c2ccc(O)c(O)c2)C(C(=O)O[C@H](Cc2ccc(O)c(O)c2)C(=O)O)C1c1ccc(O)c(O)c1 (stereo partly shown) [Sagerinic acid] | 9.70 arbitrary dimensionless unit | 26.56 arbitrary dimensionless unit | 16.78 arbitrary dimensionless unit | almost twice the effect of ascorbic acid | good protein deglycating activity | good effect on sirtuin activation | more than 2 times
